Columns and labels:
[1] = tested on: old DBA/2J mice; test: Reduction of intraocular pressure (IOP) after application to the eye, TONOLab tonometer; type: in vivo; details: for Intraocular Pressure Decrease: versus basal IOP
Source text: The main risk factor in the glaucoma is represented by the high intraocular pressure (IOP). See for instance: Libby R. T. et al., Vis Neurosci. 2005 Sep.-Oct., 22(5):637-48 and Tomida I. et al., Br. J. Opthalmol. 2004 May, 88(5):708-13.
By using the animal model of old DBA/2J mice (see above) it has been evaluated the efficacy of the compound obtained in example 3.1 in reducing the IOP. As said, this compound has a good affinity towards the CB1 receptors in vitro (example 4) and a CB1 agonist action in vivo (example 5). The intraocular pressure has been determined by a TONOLab Tonometer (Tiolat Oy), as reported by M. E. Pease et al. in J. Glaucoma, 2006 December, 15(6):512-519. The compound was dispersed in the commercial emulsion Tocrisolve™, (Tocris), at a concentration of […] and applied to the eye of old DBA/2J mice (8-10 month age; basal IOP comprised between 19.0 and 22.5 mmHg). The applied emulsion volumes were such that the compound doses resulted, respectively, of 100 μg or 50 μg. WIN 55212-2 was dispersed in Tocrisolve™at the concentration of 5 mg/ml and was the reference cannabinoidergic compound. The determination of the ocular pressure was carried out every 30 minutes up to two hours starting from the administration. The obtained results (average of 6 measurements at each time for experimental groups of 8-10 animals for group/dose) are reported in Table 3. IOP decrease was expressed in percent with respect to the basal value.

[2] = tested on: mouse deferent vessel (vas deferens); test: Ex-vivo model: electrically induced contractions of the isolated deferent vessel (vas deferens); design: species or system albino CD1 mice; details: for Effect on the curve % of inhibition of the contractions/logarithm of the WIN 55212-2 concentration: concentrations lower than or equal to 1×10^−5 M; for Inhibition of the contractions induced by the electric stimulus: concentrations lower than or equal to 1×10^−6 M
Source text: The use of the isolated deferent vessel organ, as a highly sensitive basic system in an ex-vivo model for evaluating the activity of agonist CB1 compounds, has been described by Pertwee et al. in Br. J. Pharmacol., 105:980-4, 1992. This model has been used also to evaluate the properties of antagonist CB1 compounds and to distinguish antagonist CB1 derivatives from inverse agonist CB1 compounds (Rinaldi-Carmona et al., FEBS Lett., 350:240-4, 1994; Pertwee et al., Eur. J. Pharmacol., 456:99-106, 2002). […] This effect is correlated to the action on the prejunctional neuronal CB1 receptors with the consequent release inhibition, induced by electric stimuli, of contractile neurotransmitters (noradrenaline and ATP) (Schlicker and Kathmann, Trends Pharmacol. Sci., 22:565-72, 2001). The inhibition of the contractions induced by the electric stimulus on the deferent vessel in the presence of agonist (or partial agonist) CB1 compounds are expressed as % of contraction inhibition. Said % contraction inhibition is calculated by the ratio between the contraction amplitude determined in the presence of a given concentration of the compound and that detected in its absence (basal value). The curve of the “% of contraction inhibition” as a function of the logarithm of the concentration of agonist (or partial agonist) CB1 compounds, is sigmoidal. The use of the model for the evaluation of antagonist CB1 compounds is based on the evaluation of their efficacy in inhibiting the action of the deferent vessel of agonist (or partial agonist) CB1 compounds. The inhibition is expressed by a shifting towards the right of the curves % of inhibition of contractions/logarithm of the concentration of the agonist CB1 compound, with increasing the concentration of the antagonist CB1 compound.
As reported in the literature, the experimentation has been carried out by using albino CD1 mice weighing 30-40 grams. The mice deferent vessel was recovered and transferred into an instrument for separated organs supplied by the Firm Ugo Basile (Comerio, Italy). The initial tension was of 0.5 g. The procedure adopted is reported in Pertwee et al. in Br. J. Pharmacol., 110:1483-1490, 1993. In particular the procedure and instruments as described by S. Ruiu et al. in J.P.E.T., Vol. 306, 2003, 363-370, have been used.
In a subsequent experiment it was shown that the compound activity was antagonized by the antagonist CB1 compound N-piperidinyl-[8-chloro-1-(2,4-dichlorophenyl)-1,4,5,6-tetrahydrobenzo[6,7]cyclohepta[1,2-c]pyrazol-3-carboxamide], described by S. Ruiu et al. in J.P.E.T., Vol. 306, 2003, 363-370. The experiment was carried out by adding the antagonist (concentration in bath 1 nM) 20 minutes before the first addition of the compound of the invention.

[3] = 50 μg to the eye in Tocrisolve, 30 minutes
[4] = 50 μg to the eye in Tocrisolve, 60 minutes
[5] = 50 μg to the eye in Tocrisolve, 90 minutes
[6] = 50 μg to the eye in Tocrisolve, 120 minutes
[7] = 100 μg to the eye in Tocrisolve, 30 minutes
[8] = 100 μg to the eye in Tocrisolve, 60 minutes
[9] = 100 μg to the eye in Tocrisolve, 90 minutes
[10] = 100 μg to the eye in Tocrisolve, 120 minutes

| SMILES | Intraocular Pressure Decrease [1, 3] [%] | Intraocular Pressure Decrease [1, 4] [%] | Intraocular Pressure Decrease [1, 5] [%] | Intraocular Pressure Decrease [1, 6] [%] | Intraocular Pressure Decrease [1, 7] [%] | Intraocular Pressure Decrease [1, 8] [%] | Intraocular Pressure Decrease [1, 9] [%] | Intraocular Pressure Decrease [1, 10] [%] | Reduction of intraocular pressure ([1]; dose 50 μg) | Reduction of intraocular pressure ([1]; dose 100 μg) | Effect on the curve % of inhibition of the contractions/logarithm of the WIN 55212-2 concentration [2] | Inhibition of the contractions induced by the electric stimulus [2] | Antagonism of the compound activity by a CB1 antagonist ([2]; antagonist N-piperidinyl-[8-chloro-1-(2,4-dichlorophenyl)-1,4,5,6-tetrahydrobenzo[6,7]cyclohepta[1,2-c]pyrazol-3-carboxamide] 1 nM in bath, added 20 minutes before) | Functional character at CB1 ([2]; vas deferens model) |
| --- | --- | --- | --- | --- | --- | --- | --- | --- | --- | --- | --- | --- | --- | --- |
| CCOC(=O)c1nn(-c2ccc(S(N)(=O)=O)cc2)c2c1CCc1sccc1-2 [Compound (XA), 1-(4′-sulphonamidophenyl)-4,5-dihydro-1H-thieno[2,3-g]indazol-3-ethyl carboxylate] | −0.3 | −0.2 | 0.0 | −0.1 | 0.0 | −0.2 | −0.1 | 0.1 | not able to significantly reduce the intraocular pressure | not able to significantly reduce the intraocular pressure | did not significantly modify the slope of the curve | did not significantly inhibit the contractions | – | – |
| NC(=O)c1nn(-c2ccc(S(N)(=O)=O)cc2)c2c1CCc1sccc1-2 [Compound (XB), 1-(4′-sulphonamidophenyl)-4,5-dihydro-1H-thieno[2,3-g]indazol-3-carboxamide] | −0.2 | −0.1 | 0.0 | −0.1 | −0.1 | 0.4 | −0.3 | 0.0 | not able to significantly reduce the intraocular pressure | not able to significantly reduce the intraocular pressure | did not significantly modify the slope of the curve | did not significantly inhibit the contractions | – | – |
| Cc1ccc(Cn2nc(C(=O)NCC3CCC4CC3C4(C)C)c3c2-c2sc(C)cc2C3)cc1 (stereo not drawn) [Example 3.1, N-myrtanyl-6-methyl-1-(4′-methylbenzyl)-1,4-dihydrothieno[3′,2′:4,5]cyclopenta[1,2-c]pyrazol-3-carboxamide] | 15.9 | 15.0 | 12.6 | 11.7 | 23.9 | 22.8 | 19.6 | 21.7 | more effective in reducing IOP than the reference compound | as effective to reduce eye pressure as the reference compound WIN 55212-2 | – | – | antagonized | CB1 agonist |

Source: patent US20100215759A1 (priority 2009, published 2010)
